Assay results as given in ChEMBL document CHEMBL6182935, “Discovery of a Novel Silybin Derivative for the Treatment of Metabolic Dysfunction-Associated Steatohepatitis” (J Med Chem, 2025).
In brackets after ≈: the same amount, converted by molar mass. Activity calls are given as the source filed them. The calls are words filed in the database; no cut-off is given here.

Legend:
Mus musculus [1] = experiment: Anti-MASH activity in HFD-fed CCl4-treated male C57BL/6 mouse assessed as reduction in alpha-SMA in liver at 150 mg/kg, po qd treated for 4 weeks by IHC analysis; assay type: functional, organism-based
[2] = Tmax in overnight-fasted male Sprague-Dawley rat at 150 mg/kg, po measured up to 12 hrs by HPLC analysis; assay type: ADME, organism-based; details: in vivo
L02 [3] = experiment: Anti-MASH activity in palmitate/oleate-stimulated human LO2 cells assessed as reduction in lipid accumulation at 10 to 40 uM incubated for 24 hrs by Oil Red O staining assay; assay type: functional, cell-based; details: dose 10-40 µM
[4] = (§1) Toxicity in male Sprague-Dawley rat model of CCl4-induced ALI assessed as body weight change at 100 mg/kg, IG qd pretreated with compound for 7 days followed by CCl4 administration after 2 hrs post-compound treatment measured after 16 hrs post-CCl4 injection; assay type: organism-based; details: in vivo, po, 186 h
Mus musculus [5] = experiment: Anti-MASH activity in HFD-fed CCl4-treated male C57BL/6 mouse assessed as restoration of liver SOD level at 150 mg/kg, po qd treated for 4 weeks; assay type: functional, organism-based
Hepatocyte [6] = experiment: Anti-MASH activity in palmitate/oleate-stimulated mouse primary hepatocytes assessed as reduction in lipid accumulation by Oil Red O staining assay; assay type: functional, cell-based
Hepatocyte [7] = experiment: Anti-inflammatory activity in CCl4-stimulated mouse primary hepatocytes assessed as reduction in TNF-alpha mRNA level at 1 uM; assay type: functional, cell-based
Mus musculus [8] = experiment: Anti-MASH activity in HFD-fed CCl4-treated male C57BL/6 mouse assessed as reversal of light color of liver at 150 mg/kg, po qd treated for 4 weeks; assay type: functional, organism-based
[9] = Terminal half life in overnight-fasted male Sprague-Dawley rat at 150 mg/kg, po measured up to 12 hrs by HPLC analysis; assay type: ADME, organism-based; details: in vivo, read-out: beta t1/2 (converted)
Mus musculus [10] = experiment: Anti-MASH activity in HFD-fed CCl4-treated male C57BL/6 mouse assessed as reduction in serum cholesterol level at 150 mg/kg, po qd treated for 4 weeks; assay type: functional, organism-based
Rattus norvegicus [11] = experiment: as §1, with “Hepatoprotective activity” for “Toxicity”, “reduction in vacuoles” for “body weight change”, “injection by H and E staining based analysis” for “injection”; assay type: functional, organism-based; details: time 186.0 hrs
L02 [12] = experiment: Anti-MASH activity in palmitate/oleate-stimulated human LO2 cells assessed as reduction in triglyceride level incubated for 24 hrs; assay type: functional, cell-based; details: dose 10-40 µM
Mus musculus [13] = experiment: Anti-MASH activity in HFD-fed CCl4-treated male C57BL/6 mouse assessed as reduction in liver TNF-alpha level at 150 mg/kg, po qd treated for 4 weeks by ELISA; assay type: functional, organism-based
[14] = Solubility in water incubated for 10 mins; assay type: physicochemical
[15] = Oral bioavailability in overnight-fasted male Sprague-Dawley rat assessed as fold increase at 150 mg/kg measured up to 12 hrs by HPLC analysis relative to silybin; assay type: ADME, organism-based; details: in vivo
Rattus norvegicus [16] = experiment: (§2) Hepatoprotective activity in male Sprague-Dawley rat model of CCl4-induced ALI assessed as reduction in dullness of liver margin at 100 mg/kg, IG qd pretreated with compound for 7 days followed by CCl4 administration after 2 hrs post-compound treatment measured after 16 hrs post-CCl4 injection; assay type: functional, organism-based; details: time 186.0 hrs
Hepatocyte [17] = experiment: Anti-MASH activity in palmitate/oleate-stimulated mouse primary hepatocytes assessed as reduction in FASN mRNA level by q-PCR analysis; assay type: functional, cell-based
L02 [18] = experiment: Anti-MASH activity in CCl4-stimulated human LO2 cells assessed as reduction in ROS level incubated for 24 hrs by DCFH-DA staining assay; assay type: functional, cell-based; details: dose 2.5-10 µM
Mus musculus [19] = experiment: Anti-MASH activity in HFD-fed CCl4-treated male C57BL/6 mouse assessed as reduction in steatosis in liver at 150 mg/kg, po qd treated for 4 weeks by H and E/Oil red O staining based analysis; assay type: functional, organism-based
LX-2 [20] = experiment: Anti-MASH activity in TGF-beta-activated-human LX2 cells assessed as reduction in collagen I level incubated for 48 hrs by Western blot analysis; assay type: functional, cell-based; details: dose 10-40 µM
Rattus norvegicus [21] = experiment: as §2, with “acute fat deposition” for “dullness of liver margin”, “injection by oil red O staining based analysis” for “injection”; assay type: functional, organism-based; details: time 186.0 hrs
Rattus norvegicus [22] = experiment: Hepatoprotective activity in male Sprague-Dawley rat model of CCl4-induced ALI assessed as restoration of serum AST level at 100 mg/kg, IG qd pretreated with compound for 7 days followed by CCl4 administration after 2 hrs post-compound treatment measured after 16 hrs post-CCl4 injection; assay type: functional, organism-based; details: time 186.0 hrs
Mus musculus [23] = experiment: Anti-MASH activity in HFD-fed CCl4-treated male C57BL/6 mouse assessed as restoration of serum ALT level at 150 mg/kg, po qd treated for 4 weeks; assay type: functional, organism-based
Mus musculus [24] = experiment: Anti-MASH activity in HFD-fed CCl4-treated male C57BL/6 mouse assessed as restoration of liver GSH level at 150 mg/kg, po qd treated for 4 weeks; assay type: functional, organism-based
Mus musculus [25] = experiment: Anti-MASH activity in HFD-fed CCl4-treated male C57BL/6 mouse assessed as reduction in liver IL-6 level at 150 mg/kg, po qd treated for 4 weeks by ELISA; assay type: functional, organism-based
Rattus norvegicus [26] = experiment: Hepatoprotective activity in male Sprague-Dawley rat model of CCl4-induced ALI assessed as reduction in white granular fat in liver at 100 mg/kg, IG qd pretreated with compound for 7 days followed by CCl4 administration after 2 hrs post-compound treatment measured after 16 hrs post-CCl4 injection; assay type: functional, organism-based; details: time 186.0 hrs
LX-2 [27] = experiment: Anti-MASH activity in TGF-beta-activated-human LX2 cells assessed as reduction in fibronectin level incubated for 48 hrs by Western blot analysis; assay type: functional, cell-based; details: dose 10-40 µM
[28] = Apparent volume of distribution during terminal phase in overnight-fasted male Sprague-Dawley rat at 150 mg/kg, po measured up to 12 hrs by HPLC analysis; assay type: ADME, organism-based; details: in vivo, read-out: Vz/F
[29] = AUC (0 to infinity) in overnight-fasted male Sprague-Dawley rat at 150 mg/kg, po measured up to 12 hrs by HPLC analysis; assay type: ADME, organism-based; details: in vivo
Mus musculus [30] = experiment: Anti-MASH activity in HFD-fed CCl4-treated male C57BL/6 mouse assessed as reduction in serum LDL cholesterol level at 150 mg/kg, po qd treated for 4 weeks; assay type: functional, organism-based
Hepatocyte [31] = experiment: Anti-MASH activity in CCl4-stimulated mouse primary hepatocytes assessed as reduction in ROS level at 2.5 to 10 uM by DCFH-DA staining assay; assay type: functional, cell-based; details: dose 2.5-10 µM
Rattus norvegicus [32] = experiment: Hepatoprotective activity in male Sprague-Dawley rat model of CCl4-induced ALI assessed as restoration of serum ALT level at 100 mg/kg, IG qd pretreated with compound for 7 days followed by CCl4 administration after 2 hrs post-compound treatment measured after 16 hrs post-CCl4 injection; assay type: functional, organism-based; details: time 186.0 hrs
L02 [33] = experiment: Anti-MASH activity in CCl4-stimulated human LO2 cells assessed as increase in cell viability up to 10 uM incubated for 24 hrs by MTT assay; assay type: functional, cell-based
Mus musculus [34] = experiment: Anti-MASH activity in HFD-fed CCl4-treated male C57BL/6 mouse assessed as reduction in fat dyslipidemia at 150 mg/kg, po qd treated for 4 weeks; assay type: functional, organism-based

SMILES: COc1cc([C@@H]2Oc3cc([C@H]4Oc5cc(O)cc(O)c5C(=O)[C@@H]4O)ccc3OC2CS)ccc1O (some centres undefined)
- Activity (Mus musculus [1]): Active
- Tmax [2]: 1.99 h
- Activity (L02 [3]): Active
- Activity [4]: Non-toxic
- Activity (Mus musculus [5]): Active
- Activity (Hepatocyte [6]): Active
- Activity (Hepatocyte [7]): Active
- Activity (Mus musculus [8]): Active; Activity Better Than Silybin
- half-life [9]: 1.55 h
- Activity (Mus musculus [10]): Active
- Activity (Rattus norvegicus [11]): Active
- Activity (L02 [12]): Dose-dependent-effect
- Activity (Mus musculus [13]): Active
- solubility at 10 min [14]: 250 µg/mL (≈ 501 µM)
- fold change (FC) [15]: > 20
- Activity (Rattus norvegicus [16]): Active
- Activity (Hepatocyte [17]): Active
- Activity (L02 [18]): Active
- Activity (Mus musculus [19]): Active; Activity Was Better Than Silybin
- Activity (LX-2 [20]): Dose-dependent-effect
- Activity (Rattus norvegicus [21]): Active
- Activity (Rattus norvegicus [22]): Active
- Activity (Mus musculus [23]): Active; Activity Was Better Than Silybin
- Activity (Mus musculus [24]): Active; Compound Was More Significant Than Silybin
- Activity (Mus musculus [25]): Active
- Activity (Rattus norvegicus [26]): Active
- Activity (LX-2 [27]): Dose-dependent-effect
- Vd/F [28]: 6.91 L
- AUC(0-inf) [29]: 11600 ng·h/mL
- Activity (Mus musculus [30]): Active
- Activity (Hepatocyte [31]): Active
- Activity (Rattus norvegicus [32]): Active
- Activity (L02 [33]): Active
- Activity (Mus musculus [34]): Active
